Results as given in US8865672B2, “Prevention of tissue ischemia and related methods” (The United States of America, as represented by the …, priority 2006, dated 2014).
Peptide text beside a SMILES is read from it. * marks the point of attachment. Biotin = O=C1N[C@H]2[C@H](CS[C@H]2CCCCC(=O)*)N1

How the values were obtained:
[1] = tested on: murine ASMC (CD47 null); experiment: Murine ASMC proliferation; type: cell-based, mouse; details: CD47 null MASMC
Procedure: (§1) Murine ASMC were obtained from aortic segments harvested sterilely from C57B1/6 CD47 null or CD36 null mice as described (Ray et al., Methods Cell Sci 23:185-188, 2001) and cultured in SM-GM (Cambrex)+20% FCS. In the case of CD36 null cells, culture flasks were pre-coated with 1% gelatin prior to cell plating. Wild type C57B1/6 ASMC cultures were prepared as previously described (Isenberg et al., Matrix Biol 24:110-123, 2005). Cell culture purity was determined by immunohistochemistry staining for α-smooth muscle actin. Cells were used within passage 1 to 4 to minimize overgrowth of other cell types.
Proliferation of vascular cells was measured with a non-radioactive colorimetric assay (CellTiter 96, Promega, Madison, Wis.). Briefly, to each well of a 96-well culture plate (Nunc, Denmark) 5×10^3 cells were suspended in 100 μl of culture medium with indicated treatments and incubated for 72 hours at 37° C. in a 5% CO2 atmosphere. Following incubation 20 μl of tetrazolium compound/solubilization agent was added and incubation continued for 4 hours under the same conditions. The plate was then read on a MR580 Microelisa Auto Reader (Dynatech) at a wavelength of 490 nm. Appropriate zero time controls were run for all assays and the optical density readings obtained then subtracted from those obtained at 72 hours.

[2] = tested on: murine ASMC (WT, CD36 null, CD47 null); experiment: Intracellular cGMP in murine ASMC; type: cell-based, mouse; details: WT MASMC
Procedure: as §1
HUVEC (10^4 cells/well) grown overnight in 96-well culture plates containing full growth medium with 2% FCS and weaned in growth medium without additives and 1% FCS over 24 hrs before treatment with NO donors and other agents in SM-GM without additives+0.1% BSA. Intracellular cGMP levels were determined according to the manufacturer's instructions using an enzyme immunoassay kit (Amersham Biosciences). In other experiments ASMC from wild type and CD36 or CD47 null mice were plated onto 96-well culture plates and incubated overnight in full growth medium. They were then weaned off serum as described to SM-GM+0.1% BSA and treated with NO donor and other agents as indicated. Intracellular cyclic nucleotides were determined via immunoassay.

[3] = tested on: human platelets; experiment: Thrombin-induced human platelet aggregation; type: cell-based; details: for NO delay of thrombin-induced platelet aggregation: DEA/NO 10 μM
Summary of the method: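 Washed human platelets in Tyrode's buffer pH 7.4 (2×10^5/μl) are stirred at 1200 rpm and 37 °C, and optical aggregation is followed for 5 min; under static conditions, A400 is tracked for 5 min instead. TSP1 agents or 1 μM peptide C6d are pre-incubated for 15 min before thrombin ± DEA/NO (10 μM).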

[4] = tested on: human platelets; experiment: cGMP in human platelets; type: cell-based; details: washed human platelets in Tyrode's buffer
Procedure: (§2) Fresh human platelets at 2×10^5 platelets/μl in Tyrode's buffer or PRP were pre-incubated with the indicated agents for 15 minutes and then challenged with DEA/NO for the indicated time interval at room temperature and total cGMP determined via immunoassay (Amersham, GE Healthcare, Buckinghamshire, UK). Murine WT and TSP1-null platelets were treated with DEA/NO and cGMP flux measured.

[5] = tested on: murine WT and TSP1-null platelets; experiment: Thrombin-induced murine platelet aggregation; type: cell-based, mouse; details: high shear
Procedure: Aggregation of human platelets under high shear conditions was assessed using a standard optical aggregometer (Lumi-Dual Aggregometer, Chrono-Log Corp., Havertown, Pa.) at 37° C. and 1200 rpm in a volume of 500 μl buffer with a final platelet concentration of 2×10^5 platelets/μl over a 5 minute interval. Pre-incubation with TSP1 and TSP1-based agents was for 15 minutes prior to addition of thrombin and/or the rapidly releasing nitric oxide donor DEA/NO. In some experiments platelets were pre-incubated with the Rap1 inhibitor GGTI-298 (10 μM) (Calbiochem, La Jolla, Calif.) for 30 minutes prior to initiating aggregation. In other high shear aggregation experiments murine platelets were prepared as above with the following modifications. Mouse blood was collected by retro-orbital bleeding of anesthetized mice using heparinized tubes. PRP was prepared and then diluted with 4 vol. of Tyrodes containing 5 mM EDTA to prevent activation. After collection by centrifugation, platelets were resuspended in 2× initial PRP volume and held at room temperature for less than 1 hour before use. […] Platelet aggregation under static conditions was assessed using a spectrophotometer (Beckman DU 640, Beckman Coulter, Fullerton, Calif.) and determined as a change in absorbance at 400 nm with continuous observation over a five minute interval. […]

[6] = tested on: Rap1; experiment: Rap1 pulldown assay in platelets; type: cell-based, human; details: thrombin
Procedure: Platelets were diluted to 5×10^8 platelets/mL in Tyrode's buffer and treated with various reagents for the indicated times. Immediately following treatment, platelets were pelleted at 13,000 g for 30 seconds at 4° C. and resuspended in ice-cold lysis buffer containing 20 mM HEPES (pH 7.5), 100 mM NaCl, 10 mM EGTA, 20 mM MgCl2, 8 mM α-glycerophosphate, 1% Triton X-100, 1 mM phenylmethylsulfonylfluoride, 40 mM NaF, 1 mM Na3VO4, 10 μg/mL aprotinin, and 10 μg/mL leupeptin. Lysates were centrifuged at 13,000 g for 5 minutes at 4° C. and the supernatants were incubated for 15 minutes on a tumbler at 4° C. with glutathione Sepharose 4B beads (Amersham) prebound with a GST-Ral GDS RBD fusion protein (kind gift of J. Silvio Gutkind, NIH, Bethesda, Md.). Bead complexes were washed by centrifugation at 6,000 g for 30 seconds at 4° C. followed by resuspension in 0.5 mL lysis buffer; 2 washes were performed for each sample. After the second wash, beads were resuspended in an equal volume of 2×SDS sample buffer and stored at −20° C. For Western analysis, bead-bound proteins in sample buffer were boiled for 10 minutes and subjected to electrophoresis on NuPAGE 10% Bis-Tris gels (Invitrogen, Carlsbad, Calif.), transferred to Immobilon-P PVDF membranes (Millipore, Billerica, Mass.), and blotted with rabbit polyclonal anti-Rapt (sc-65; Santa Cruz Biotechnology, Santa Cruz, Calif.).

[7] = tested on: VASP; experiment: Phospho-Ser239 VASP Western blotting in platelets; type: cell-based, human; details: 8Br-cGMP 100 μM, TSP1 2.2 nM
Procedure: Washed human platelets (resuspended in Tyrode's buffer to 3×10^8 platelets/mL to a final volume of 0.5 mL) were incubated at 37° C. for 30 minutes before treatment. TSP1 was added 15 minutes prior to treatment. Immediately following treatment, platelets were pelleted at 13,000×g at 4° C. for 15 seconds and resuspended in 1 mL of a lysis buffer containing 10 mM Tris-HCl (pH 7.5), 150 mM NaCl, 1 mM EDTA, 1 mM Na3VO4, 40 mM NaF, 1 μg/mL aprotinin, 1 μg/mL leupeptin, 1 mM phenylmethysulfonylfluoride and 1% […]. This suspension was placed at 4° C. with gentle agitation for 5 minutes before centrifugation at 13000×g for 5 minutes at 4° C. 5 μg lysates were electrophoresed on 4-12% Bis-Tris NuPAGE gels, transferred to Immobilon PVDF membranes and probed with a rabbit polyclonal antiserum against Serine 239-phosphorylated VASP (Santa Cruz Biotechnology, Santa Cruz, Calif.).

[8] = tested on: NO/cGMP signaling; experiment: cGMP signaling (NO-stimulated cGMP, immunoassay); type: cell-based, human; details: concentration for 50% inhibition of effect
Procedure: (§3) Vascular cells (endothelial) or HT-1080 cells (10^4 cells/well) grown overnight in 12-well culture in SM-GM containing 2% FCS or RPMI+10% FCS respectively and then weaned off serum over 48 h before treatment with NO donors and other agents in serum/additive free medium+0.1% BSA. Intracellular cGMP levels were determined using an enzyme immunoassay (Amersham, GE Health Care, UK). In other experiments fresh washed human platelets were incubated in Tyrode's buffer and the indicated treatment agents±NO and cGMP determined.

[9] = tested on: VSMC and endothelial cells; experiment: NO-stimulated adhesion of VSMC and endothelial cells to type I collagen (Example 9); type: cell-based; details: 10 μM DEA/NO
Procedure: Vascular cells (VSMC or endothelial) were plated at 10,000 cells/well onto 96-well plates (Maxisorb, Nunc) precoated with type I collagen (3 μg/ml). […] Plates were then washed with PBS, fixed with glutaraldehyde, stained with crystal violet, and washed. Absorbed stain was solubilized with acetic acid from fixed cells and the resulting color signal determined on a MR580Microelisa Auto Reader, (Dynatech, Alexandria, Va.) at 450 nm wavelength.

[10] = tested on: endothelial cells and platelets; experiment: NO-stimulated cGMP flux in endothelial cells and platelets (Example 9); type: cell-based, human; details: 10 μM DEA/NO
Procedure: as §3
Endothelial cells (FIG. 62C) and platelets (FIG. 62D) in basal medium without serum or Tyrode's buffer respectively were treated with the indicated peptides±NO (10 μM DEA/NO) and cGMP levels determined.

[11] = tested on: murine WT and TSP1-null platelets; experiment: cGMP in murine platelets; type: cell-based, mouse; details: 100 μM added to Tyrode's
Procedure: After induction of general anesthesia with isoflurane 2%, age and sex matched C57BL/6 WT and TSP1-null mice underwent cardiac puncture. Blood was aspirated into 1 cc syringes with a 25 gauge needle containing 100 μl heparin (Heparin Lock Flush, Abbott, Chicago, Ill.), mixed with 100 μl 3% ACD and centrifuged in 1.2 ml S-Monovette separation tubes (Sarstedt, Germany). PRP was aspirated off, centrifuged, and the resulting platelet pellet was resuspended in 200 μl of Tyrode's buffer.
as §2

Compound: 3TSR: recombinant type 1 repeats of TSP1
- NO-stimulated proliferation [1]: failed to inhibit
- NO-stimulated cGMP [2]: inhibited NO-stimulated cGMP responses in WT
- NO delay of thrombin-induced platelet aggregation ([3]; high shear, thrombin 0.2 U/ml): blocked the ability of NO to delay thrombin-induced aggregation
- NO delay of thrombin-induced platelet aggregation ([3]; static / low shear conditions): reversed the NO delay of aggregation under static conditions
- NO stimulated cGMP in platelets [4]: inhibited NO stimulated cGMP flux

Compound: Nc1nc2c(nc(Br)n2[C@@H]2O[C@@H]3COP(=O)(O)O[C@H]3[C@H]2O)c(=O)[nH]1 [8Br-cGMP, 8-Bromo cyclic guanine monophosphate, reference compound]
- thrombin-induced aggregation ([5]; TSP1-null platelets): rendered TSP1-null platelets resistant to thrombin-induced aggregation
- thrombin-induced aggregation ([5]; WT murine platelets): substantially inhibited aggregation of WT murine platelets
- Rap1 activation (GTP loading) [6]: inhibited this activation
- VASP phosphorylation at Ser239 [7]: stimulates VASP phosphorylation at Ser239

Compound: CC[C@H](C)[C@H](NC(=O)[C@@H](N)Cc1c[nH]cn1)C(=O)NCC(=O)N[C@@H](Cc1c[nH]c2ccccc12)C(=O)N[C@@H](CCCCN)C(=O)N[C@@H](CC(=O)O)C(=O)N[C@@H](Cc1ccccc1)C(=O)N[C@H](C(=O)N[C@@H](C)C(=O)N[C@@H](Cc1ccc(O)cc1)C(=O)N[C@@H](CCCNC(=N)N)C(=O)N[C@@H](Cc1c[nH]c2ccccc12)C(=O)N[C@@H](CCCNC(=N)N)C(=O)N[C@@H](CC(C)C)C(=O)N[C@@H](CO)C(=O)O)[C@@H](C)O [C6b, HIGWKDFTAYRWRLS] (H-HIGWKDFTAYRWRLS-OH)
- IC50 [8]: ~100 nM
- NO-stimulated adhesion to type I collagen [9]: blocked in a dose-dependent manner
- NO-stimulated cGMP flux [10]: Blocked

Compound: CC[C@H](C)[C@H](NC(=O)CCCC[C@@H]1SC[C@@H]2NC(=O)N[C@@H]21)C(=O)NCC(=O)N[C@@H](Cc1c[nH]c2ccccc12)C(=O)N[C@@H](CCCCN)C(=O)N[C@@H](CC(=O)O)C(=O)N[C@@H](Cc1ccccc1)C(=O)N[C@H](C(=O)N[C@@H](C)C(=O)N[C@@H](Cc1ccc(O)cc1)C(=O)N[C@@H](CCCNC(=N)N)C(=O)O)[C@@H](C)O [C6d, biotin-IGWKDFTAYR] (Biotin-IGWKDFTAYR-OH)
- IC50 [8]: ~100 nM
- NO delay of thrombin-stimulated aggregation ([3]; low shear, peptide 1 μM, 10 μM DEA/NO): completely reversed
- NO-stimulated adhesion to type I collagen [9]: blocked in a dose-dependent manner
- NO-stimulated cGMP flux [10]: Blocked

Compound: N=C(N)NCCC[C@H](N)C(=O)O [L-arginine, reference compound]
- platelet cGMP levels [11]: elevated cGMP levels in TSP1-null but not in WT platelets
